Measurements as given in patent US20250000869A1, “TOPICAL COMPOSITIONS OF 2-PHENYL-3, 4-DIHYDROPYRROLO [2, L-F] [1, 2, 4] TRIAZINONE DERIVATIVES AND USES THEREOF” (TOPADUR PHARMA AG, priority 2021, published 2025).

Tests used:
[1] = Plasma concentrations after topical, on wound administration (satellite study, LC-MS/MS); assay type: in vivo, C57BL/6J mice
Description: In order to address the systemic exposure following topical, on wound administration of Compound 1, in a satellite study, plasma concentrations of Compound 1 was measured. To this end, eight male C57BL/6J mice (12 weeks of age, body weight 26.8±0.4 g (Mean±SD)) underwent surgery for generation of one full thickness, excisional, cutaneous wounds, in an identical procedure as described above. The study was performed in C57BL/6J mice due to limited availability of uPAR−/− mice. As described before, Compound 1 (in form of Topical Composition A2) was added in a dose volume of 25 μl to the wounds as a single dose. The dose related to body weight was approximately 0.565 μg/kg (from a total of 25 μl of 1 μM Compound 1 per mouse). Peripheral venous blood was sampled from the tail tip (or by cardiac puncture for the final sampling) in four mice at time points (min) 1, 5, 15, 30, 60 post administration of Compound 1 and in another four mice at time points (h) 1, 2, 4, 6, 24 post administration of Compound 1. Plasma was generated and Compound 1 measured by LC-MS/MS. The LLOQ for Compound 1 was at 800 pg/ml corresponding to 1.32 nM. […] Considering the plasma protein binding of Compound 1 in mice with unbound fractions (fu) of 0.08% for Compound 1 the unbound plasma concentrations should have been <[…] for Compound 1, corresponding to <[…] for Compound 1 when extrapolated to administration to two wounds per mice as this was done in the main efficacy study, under the assumption of dose linearity.

Plasma protein binding = assay type: in vitro ADME; conditions: mouse, mice, read-out: unbound fraction (fu), plasma protein binding
rat aortic rings = assay: Relaxation of rat aortic rings; conditions: earlier effected measurements
[2] = Solubility screening of Compound 1 in various solvents/solvent systems; assay type: physicochemical; conditions: read-out: Determined Solubility
Source text: A solubility screening of Compound 1 was effected. […] In general, three potential approaches where covered: i) polar organic co-solvents, ii) solubilization by surfactants and iii) oils which may, in particular, serve as a basis of an emulsion gel. A phosphate buffer of pH 6.5 with low molarity was used as this salt and pH is suitable for application on wounds. It is of note that the resulting pH of the screened systems is about 7.3.

PDE5 = PDE5 (Homo sapiens, UniProt O76074); assay: IC50 of Compound 1 (earlier effected measurements); assay type: biochemical
C57Bl/6J mice = assay: Ulcer core perfusion of full thickness excisional cutaneous wounds by LSCI/LASCA; assay type: in vivo; conditions: single dose 25 μl per wound, almost all times of measurements
Description: Effects of a single dose of Topical Composition A2, Topical Composition A4, and Vehicle Composition A, when administered on the perfusion of the ulcer core of full thickness excisional cutaneous wounds in C57B1/6J mice was investigated. Thus, Topical Compositions A2 and A4 were applied in a dose volume of 25 μl per wound. Each individual mouse had surgery for two wounds located symmetrical to the dorsal midline using 8 mm diameter punch biopsy devices.
Topical Compositions A2 and A4 or Vehicle Composition A were randomly administered to one or the other wound under a blinded protocol. This procedure enabled an intra-individual comparison between Compound 1 and its composition vehicle. Perfusion of the ulcer core as well as of the periulcer region was separately measured by Laser Speckle Contrast Imaging (LSCI)/Laser Speckle Contrast Analysis (LASCA) using a Perimed device. LASCA wound perfusion measurements of digital ulcers in SSc were previously shown to correlate with time to healing (Barsotti S et al Clin Rheumatol. (2020) 39(1):69-75).
In detail, a single application of Topical Compositions A2 and A4 or Vehicle Composition A, each at a volume of 25 μl per wound was randomly administered either to the right or left of two full thickness cutaneous wounds per mouse generated by 8 mm punch biopsies and symmetrically to the dorsal midline, at 24 h after surgery. […]

[3] = Solubility of Compound 1 in solvent systems comprising PEG400; assay type: physicochemical; conditions: room temperature, read-out: Determined Solubility
Source text: A solubility study of Compound 1 in solvent systems comprising PEG400 in various concentrations was effected.

unbound plasma concentration extrapolated to two wounds per mice ([1]; assumption of dose linearity): < 2120 nM | unbound plasma concentration ([1]; calculated from LLOQ and fu, one wound per mouse): < 1060 nM | plasma concentration of Compound 1 ([1]; single on wound dose 25 μl Topical Composition A2 (approx. 0.565 μg/kg), 1 min to 24 h, all time points and mice, LLOQ 800 pg/ml): < 1.32 nM | fraction unbound (Plasma protein binding): 0.0008 | solubility ([2]; 1% poloxamer 407 in phosphate buffer, pH 6.5, aqueous with cosolvent or surfactant or cyclodextrin, 1% poloxamer 407 in PB, PB = Phosphate buffer 10 mmol/L pH 6.5): 270 µg/mL | solubility ([2]; 1% polysorbate 80 in phosphate buffer, pH 6.5, aqueous with cosolvent or surfactant or cyclodextrin, 1% polysorbate 80 in PB, PB = Phosphate buffer 10 mmol/L pH 6.5): 77 µg/mL | solubility ([2]; 3% polysorbate 80 in phosphate buffer, pH 6.5, aqueous with cosolvent or surfactant or cyclodextrin, 3% polysorbate 80 in PB, PB = Phosphate buffer 10 mmol/L pH 6.5): 139 µg/mL | solubility ([2]; 8% polysorbate 80 in phosphate buffer + 3% benzyl alcohol, pH 6.5, aqueous with cosolvent or surfactant or cyclodextrin, 8% polysorbate 80 in PB + 3% benzyl alcohol, PB = Phosphate buffer 10 mmol/L pH 6.5): 56 µg/mL | solubility ([2]; 8% polysorbate 80 in phosphate buffer + 10% MCT, pH 6.5, aqueous with cosolvent or surfactant or cyclodextrin, 8% polysorbate 80 in PB + 10% MCT, PB = Phosphate buffer 10 mmol/L pH 6.5): 37 µg/mL | solubility ([2]; 8% polysorbate 80 in phosphate buffer + 10% ethanol, pH 6.5, aqueous with cosolvent or surfactant or cyclodextrin, 8% polysorbate 80 in PB + 10% ethanol, PB = Phosphate buffer 10 mmol/L pH 6.5): 43 µg/mL | solubility ([2]; 8% polysorbate 80 in phosphate buffer + 10% poloxamer 407, pH 6.5, aqueous with cosolvent or surfactant or cyclodextrin, 8% polysorbate 80 in PB + 10% poloxamer 407, PB = Phosphate buffer 10 mmol/L pH 6.5): 63 µg/mL | solubility ([2]; 8% polysorbate 80 in phosphate buffer, pH 6.5, aqueous with cosolvent or surfactant or cyclodextrin, 8% polysorbate 80 in PB, PB = Phosphate buffer 10 mmol/L pH 6.5): 67 µg/mL | solubility ([2]; 10% poloxamer 407 in phosphate buffer, pH 6.5, aqueous with cosolvent or surfactant or cyclodextrin, 10% poloxamer 407 in PB, PB = Phosphate buffer 10 mmol/L pH 6.5): 23.2 µg/mL | solubility ([2]; PEG 400/phosphate buffer (30:70, vol:vol), pH 6.5, aqueous with cosolvent or surfactant or cyclodextrin, PEG 400/PB (30:70, vol:vol), PB = Phosphate buffer 10 mmol/L pH 6.5): 1 µg/mL | solubility ([2]; PEG 400/phosphate buffer (70:30, vol:vol), pH 6.5, aqueous with cosolvent or surfactant or cyclodextrin, PEG 400/PB (70:30, vol:vol), PB = Phosphate buffer 10 mmol/L pH 6.5): 110 µg/mL | solubility ([2]; isopropyl myristate (IPM), oil or lipid, Isopropyl myristate (IPM)): 93 µg/mL | solubility ([2]; medium chain triglycerides (MCT), oil or lipid, Medium chain triglycerides (MCT)): 282 µg/mL | solubility ([2]; octyldodecanol (Kollicream OD), oil or lipid, Octyldodecanol (Kollicream OD)): 28 µg/mL | solubility ([2]; pH 6.5, aqueous with cosolvent or surfactant or cyclodextrin, PEG 400/PB (30:70, vol:vol) + 3% benzyl alcohol, PB = Phosphate buffer 10 mmol/L pH 6.5): 8 µg/mL | solubility ([2]; pH 6.5, aqueous with cosolvent or surfactant or cyclodextrin, PEG 400/PB (30:70, vol:vol) + 3% polysorbate 80, PB = Phosphate buffer 10 mmol/L pH 6.5): 20 µg/mL | solubility ([2]; pH 6.5, aqueous with cosolvent or surfactant or cyclodextrin, PEG 400/PB (30:70, vol:vol) + 10% poloxamer 407, PB = Phosphate buffer 10 mmol/L pH 6.5): 54 µg/mL | solubility ([2]; polyethylene glycol PEG 400, organic solvent or mixture, Polyethylene glycol PEG 400): 10500 µg/mL | IC50 (PDE5): 1.18 nM | solubility ([3]; aqueous with cosolvent or surfactant or cyclodextrin, PEG400:benzyl alcohol:phosphate buffer (44:1:55) vol:vol, Phosphate buffer 12 mmol/L pH 6.7): 0.861 µg/mL | solubility ([3]; aqueous with cosolvent or surfactant or cyclodextrin, PEG400:benzyl alcohol:phosphate buffer (49:1:50) vol:vol, Phosphate buffer 12 mmol/L pH 6.7): 2.18 µg/mL | solubility ([3]; aqueous with cosolvent or surfactant or cyclodextrin, PEG400:benzyl alcohol:phosphate buffer (54:1:45) vol:vol, Phosphate buffer 12 mmol/L pH 6.7): 5 µg/mL | solubility ([3]; aqueous with cosolvent or surfactant or cyclodextrin, PEG400:benzyl alcohol:phosphate buffer (59:1:40) vol:vol, Phosphate buffer 12 mmol/L pH 6.7): 12.8 µg/mL | solubility ([3]; aqueous with cosolvent or surfactant or cyclodextrin, PEG400:benzyl alcohol:phosphate buffer (64:1:35) vol:vol, Phosphate buffer 12 mmol/L pH 6.7): 37 µg/mL | solubility ([3]; aqueous with cosolvent or surfactant or cyclodextrin, PEG400:benzyl alcohol:phosphate buffer (69:1:30) vol:vol, Phosphate buffer 12 mmol/L pH 6.7): 112 µg/mL | solubility ([3]; aqueous with cosolvent or surfactant or cyclodextrin, PEG400:benzyl alcohol:phosphate buffer (79:1:20) vol:vol, Phosphate buffer 12 mmol/L pH 6.7): 882 µg/mL | solubility ([3]; aqueous with cosolvent or surfactant or cyclodextrin, PEG400:benzyl alcohol:phosphate buffer (89:1:10) vol:vol, Phosphate buffer 12 mmol/L pH 6.7): 1770 µg/mL | solubility ([3]; organic solvent or mixture, PEG400:benzyl alcohol (99:1) vol:vol): 12700 µg/mL
SMILES: CCCOc1ccc(S(=O)(=O)N2CCC(CCO[N+](=O)[O-])CC2)cc1-c1nn2c(CCC)c(/C=N/O)c(C)c2c(=O)[nH]1 [Compound 1, 2-[1-(3-{6-[(1E)-(hydroxyimino)methyl]-5-methyl-4-oxo-7-propyl-3H,4H-pyrrolo[2,1-f][1,2,4]triazin-2-yl}-4-propoxybenzenesulfonyl)piperidin-4-yl]ethyl nitrate]
IC40 for relaxation of rat aortic rings (rat aortic rings): 8000 nM | ulcer core perfusion compared to Vehicle Composition A (C57Bl/6J mice): increases perfusion of ulcer core
